This is an account of results in US12084523B2, “Ubiquitin high affinity cyclic peptides and methods of use thereof” (TECHNION RESEARCH & DEVELOPMENT FOUNDATION LIMITED, priority 2018, dated 2024).

Read-outs that look alike come from different tables or passages of the source. A value given as a limit tells only on which side of the number the result lay.

Experiment [1] deals with T1, K48-Ub2 (Homo sapiens, UniProt P0CG47).
T1 construct: solid phase peptide synthesis of Ub monomers (modified as required); made in house; host or cells: total chemical synthesis (SPPS, isopeptide ligation, desulfurization)
Put plainly: Deep mutational scanning of J08_mClBz (relative enrichment, MiSeq). The class given is binding. The settings on record: single mutation of J08_mClBz. From the text: FIG. 36 is a bar graph showing relative enrichment (log2 E) versus single mutations based on deep scanning (Step 2b in FIG. 34B). E=Positive fraction %/Input fraction % according MiSeq sequencing results. Bars of positive values and negative values indicate potentially favorable and unfavorable mutations, respectively.
Mutation of Leu6 seemed highly flexible which allowed its replacement by either nonpolar or polar residues. […] Based on this information, the inventors prepared nine peptides containing F9Y mutations.

The target of experiment [2] is T1, K48-Ub2. Put plainly: SPR binding of cyclic peptides to K48-linked di-ubiquitin. In general terms: Surface plasmon resonance follows binding to a sensor surface in real time, without labels.
Description: The interactions between cyclic peptides: U2i, U2ii, U4i, U4ix and Ub1, ^K48Ub2 and ^K48Ub4, were determined using BIACORE T100 instrument (GE healthcare) equipped with a biotin CAPture kit Series S chip. The buffer in all experiments contained 50 mM HEPES, pH 7.3, 150 mM NaCl, 0.05% Tween20, 2 mM DTT with 0.2% DMSO. Biotinylated Ub1, ^K48Ub2 and ^K48Ub4 were loaded to approximately equal molar amounts on the SPR chip, and various concentrations of cyclic peptides were flowed over at 100 μL/sec for 120 sec, before initiation of dissociation by flowing buffer over at 100 μL/sec for further 700 sec. Traces were fit to the simplest, two-state model for binding. Association was fit to a single exponential assuming pseudo-first order conditions, whereas the dissociation trace was fit to single exponential plus a drift term.
Each peptide was flowed over Ub1, ^K48Ub2 and ^K48Ub2 immobilized on SPR chips.
Another experiment concerns the target T2, ^K48Ub4 (Homo sapiens, UniProt P0CG47).
T2 construct: solid phase peptide synthesis of Ub monomers (modified as required); made in house
Put plainly: SPR binding of cyclic peptides to K48-linked tetra-ubiquitin. The procedure: Surface Plasmon Resonance (SPR)
The interactions between cyclic peptides: U2i, U2ii, U4i, U4ix and Ub1, ^K48Ub2 and ^K48Ub4, were determined using BIACORE T100 instrument (GE healthcare) equipped with a biotin CAPture kit Series S chip. The buffer in all experiments contained 50 mM HEPES, pH 7.3, 150 mM NaCl, 0.05% Tween20, 2 mM DTT with 0.2% DMSO. Biotinylated Ub1, ^K48Ub2 and ^K48Ub4 were loaded to approximately equal molar amounts on the SPR chip, and various concentrations of cyclic peptides were flowed over at […] for 120 sec, before initiation of dissociation by flowing buffer over at […] for further 700 sec. Traces were fit to the simplest, two-state model for binding. Association was fit to a single exponential assuming pseudo-first order conditions, whereas the dissociation trace was fit to single exponential plus a drift term. Finally, due to the poor quality of the traces for U4ix binding ^K48Ub2, the amplitude of the association kinetic trace at different concentrations of peptide was fit to estimate the lower bound for KD.
Each peptide was flowed over Ub1, ^K48Ub2 and […] immobilized on SPR chips. There was no detectable binding to Ub1 for any of the peptides, as expected, as Ub1 binding was explicitly selected against during the RaPID protocol. […] However, Ub2i and Ub2ii also strongly bound ^K48Ub4, with a low apparent KD and an increased SPR response (FIG. 1E). This was consistent with a higher stoichiometry of binding to the tetramer, which could be explained by additional binding sites in ^K48Ub4. Indeed, the ^K48Ub2 structure can be superimposed twice on the ^K48Ub4 crystal structure (FIG. 10). […] However, similar to Ub2i and Ub2ii, Ub4i also bound ^K48Ub2. This was perhaps unsurprising, given the high sequence identity between Ub4i and Ub2i.

In a further experiment the target is T3, monomeric Ub (Homo sapiens, UniProt P0CG47).
T3 construct: made in house
Put plainly: NMR titration with monomeric Ub. The experiment is classed as binding. To be noted: compared with ^K48Ub2. As to the method: (§1) All NMR studies were performed on Bruker Avance III 600 MHz spectrometer equipped with TCI cryoprobe. The sample temperature was set to 23° C. for Ub2ii binding studies or 25° C. for Ub4ix studies, unless indicated otherwise. The protein (monomeric Ub or Ub chains) samples were prepared in 20 mM sodium phosphate buffer (pH 6.8) containing 5-10% D20 and 0.02% (w/v) NaN3. The Ub2ii peptide was dissolved in deuterated DMSO (up to 20 mM concentration) and titrated in μL amounts into 50 μM ^15N-Ub^WT or K63-linked Ub2 (^15N-enriched in the distal domain) to two molar equivalents. Ub2ii was titrated into 100 μM solutions of proximally- or distally-^15N-enriched ^K48Ub2 to 1:1 or 1:1.3 molar ratio, respectively, as well as into 200 μM ^K48Ub2 with the ^13C/^15N-enriched proximal or distal Ub unit. Ub4ix titration into K48-linked Ub2, Ub3, and Ub4 was performed in a similar manner, with the starting Ub chain concentration of 200 μM; the chain/peptide molar ratio at the endpoint varied from 1:1 (Ub2) to 1:1.5 or 1:2 for Ub3 and Ub4. Several of these titrations were performed twice and at differing protein concentrations, to verify the reproducibility of the observed spectral changes. Separately, a similar amount of DMSO was added to ^15N-labeled Ub to verify that the presence of DMSO in the peptide-containing stock solution had negligible effect on Ub spectra. […]

Another experiment relates to USP2. Kind of experiment: In vitro deubiquitination assay, USP2 with K48-linked di-Ub. The class given is biochemical. To be noted: di-Ub as the substrate. The procedure: In Vitro Deubiquitination Assay
In vitro deubiquitination reactions were performed in a Tris buffer (50 mM TRIS, 1 mM TCEP, pH 7.7), containing 2 μM ^K48Ub2/4, then the specific DUB (50 mM Tris, 0.5 mM EDTA, 1 mM TCEP and 0.5 mg/ml ovalbumin, pH 7.5) was added. The reaction mixtures were incubated at 37° C. and at the indicated time points the reactions were stopped by taking aliquots and mixed them with 3× sample buffer and boiling. The same amounts were loaded on 14% SDS-PAGE, electro-blotted to nitrocellulose membrane and probed with an anti-Ub antibody. Bands were quantified with Image Quant LAS 4000 (GE Healthcare).
The inventors further chose to examine the effect of these cyclic peptides on two DUBs: OTUB1, a K48-linkage chain specific DUB, and USP2, which cleaves most Ub chains without specificity, using K48-linked di- and tetra-Ub chains as substrates.

The target in the next experiment is T4, ^K63Ub2 (Homo sapiens, UniProt P0CG47, K63R).
T4 construct: Recombinant Ub monomers carrying chain-terminating mutations; made in house
Kind of experiment: NMR titration with K63-linked di-Ub. The experiment is classed as binding. The settings on record: up to 2:1 peptide:Ub2. The procedure: as §1

Consider *GWFDDLYLYVAYC [J08_mClBz_F9Y], for which the relative enrichment ratio at K48-Ub2 [1] is above 5. At K48-Ub2 [2] (from J08_mClBz), the “fold improvement of binding affinity” value is reported as 17 fold.

A word on the koff: it is a measure of how fast the partners let go of each other. One may read the kon as a measure of how fast the partners come together. Higher therefore signals faster complex formation. What is called Kd is the constant that tells how readily two partners part at equilibrium. In the case of `CC(C)C[C@@H]1NC(=O)[C@H](Cc2ccc(O)cc2)NC(=O)[C@H](Cc2ccc(O)cc2)NC(=O)[C@H](Cc2ccc(O)cc2)NC(=O)[C@H](CCC(=O)O)NC(=O)[C@H](CCCNC(=N)N)NC(=O)[C@H](CC(=O)O)NC(=O)[C@H](Cc2ccc(O)cc2)NC(=O)[C@H](Cc2c[nH]c3ccccc23)NC(=O)[C@@H](Cc2c[nH]c3ccccc23)NC(=O)CSC[C@@H](C(=O)NCC(N)=O)NC(=O)CNC(=O)[C@H](Cc2ccc(O)cc2)NC(=O)CNC1=O` [Ub2ii], the koff on ^K48Ub4 (SPR, target ^K48Ub4) came to 0.012 s⁻¹; at K48-Ub2 [2] (SPR, target ^K48Ub2), 0.016 s⁻¹. The kon came out at 877000 M⁻¹ s⁻¹ at ^K48Ub4 (SPR, target ^K48Ub4) and 489000 M⁻¹ s⁻¹ at K48-Ub2 [2] (SPR, target ^K48Ub2). The Kd on ^K48Ub4 (SPR, target ^K48Ub4, read-out: KD) was 14 nM; at ^K48Ub4 (range stated in the description, 'as exemplified', read-out: tetrameric Ub binding affinity KD), 10 to 20 nM; on K48-Ub2 [2] (SPR, target ^K48Ub2, read-out: KD), 33 ± 8 nM; at K48-Ub2 [2] (range stated in the description, 'as exemplified', read-out: dimeric Ub binding affinity KD) it was 30 to 50 nM. Also, the “binding to monomeric Ub (NMR)” value on monomeric Ub is “much weaker binding”. Moreover, the “inhibition of USP2” value with USP2 is around 40%. Moreover, the “binding to K63-linked di-Ub (NMR)” value on ^K63Ub2 was “non-specific and much weaker”.
